Assays:
[1] = target: T1, alternative-amplification pathway C3 convertase on EAC4b,3b (Homo sapiens, UniProt P00751+P01024); experiment: Inhibition of generation of alternative-amplification pathway C3 convertase (lysis of EAC4b,3b); format: biochemical, sheep erythrocyte
T1 construct: C3bBb(P) formation read by lysis with rat serum-EDTA
Description: This example illustrates the activity of heparin and heparin-oligosaccharides to inhibit generation of the alternative-amplification pathway C3 convertase. The method described in Weiler et al., J. Exp. Med. 147: 409-421, 1978; Weiler, Immunopharmacology 6: 245-255, 1983; and Sharath et al., Immunopharmacology 9: 73-83, 1985, was used. Briefly, inhibition was examined in experiments that used EAC4b,3b which were prepared to have high, intermediate, and low amounts of C3 on the cell surface. EAC4b,3b^100, EAC4b,3b^20, and EAC4b,3b^5 were produced using a C3 input of 100 μg, 20 μg, and 5 μg per 10^9 EAC4b,2a cellular intermediates, respectively. Complement assay buffer (DGVB^++) 100 μL, alone was added to tubes used for the reagent blank, no inhibition, and 100% lysis; or complement assay buffer containing a heparin or heparin-oligosaccharide solution was added to the remaining tubes. At time zero, 100 μl of complement assay buffer containing a suspension of 1×10^7 EAC4b,3b, an excess amount of P and D (100 ng P), and an amount of B needed to lyse the noninhibited tubes at an average of 1 hemolytic event per cell (0.03 ng B for EAC4b,3b^100, 0.15 ng B for EAC4b,3b^20, and 0.50 ng B for EAC4b,3b^5) was added to each tube. The tubes used for the reagent blank contained no B. The mixtures were incubated for 30 minutes at 30° C. with shaking. Then, 300 μL of a 1:20 dilution of rat serum in 40 mM EDTA was added to each tube and incubation was continued with shaking for 60 minutes at 37° C. Saline (1.5 mL) was then added to each tube, except the 100% tube which was lysed with 1.5 mL of water in place of the saline. Finally, the contents of the tubes were mixed, centrifuged and the absorbance of the supernatant was measured at 414 nm.
The percent lysis, the average number of hemolytic sites per cell (Z), and the percent inhibition were then calculated. Data are expressed as either percent inhibition or as 100 times the ED50 (the amount of heparin resulting in 50% inhibition) for heparin divided by the ED50 for heparin-oligosaccharide. Concentration of heparin and heparin-oligosaccharides are expressed as micrograms per 1×10^7 cellular intermediates. The volume of the reaction tubes during convertase generation varied between 0.2 mL and 0.3 mL; the number of cellular intermediates was held at 1×10^7 per tube. The amount of lysis (Z) seen in the nonhibited tube was relatively independent of the volume of buffer present in the tube during convertase generation. Similarly, the amount of inhibition of convertase generation was independent of the volume of buffer present in the tube during convertase generation.

[2] = tested on: aPTT (activated thromboplastin time); experiment: Anticoagulant activity by aPTT; format: biochemical; conditions: standard curve using heparin (Mr avg 14,000), 167 units/mg
Description: (§1) This example illustrates the anticoagulant activity of each heparin and heparin-oligosaccharide fragment. Anticoagulant activity was determined by aPTT (activated thromboplastin time) (Linhardt et al., J. Biol. Chem. 257: 7310-13, 1982). Antithrombin III-mediated anti-factor IIa and antifactor Xa activity was measured using purified plasma proteins as described in Linhardt et al. and in Table 2. […] Two bovine heparins had 106% and 124% of standard porcine heparin's activity and the low molecular weight heparin had 100% of standard porcine heparin's activity on complement activation.
(§2) The anticoagulant activity of heparin-oligosaccharides and commercial heparins measured by antifactor IIa assays are plotted against their ability to inhibit complement activation in FIG. 5. The porcine heparins, bovine heparins, and low molecular heparins cluster, showing only minor differences in activities.

[3] = tested on: T2, factor IIa (Homo sapiens); experiment: Antithrombin III mediated anti-factor IIa activity, purified plasma proteins; format: biochemical; conditions: standard curve using heparin (Mr avg 14,000), 167 units/mg
T2 construct: anti-factor IIa; from tissue
T2 sequence (P01008 33-464): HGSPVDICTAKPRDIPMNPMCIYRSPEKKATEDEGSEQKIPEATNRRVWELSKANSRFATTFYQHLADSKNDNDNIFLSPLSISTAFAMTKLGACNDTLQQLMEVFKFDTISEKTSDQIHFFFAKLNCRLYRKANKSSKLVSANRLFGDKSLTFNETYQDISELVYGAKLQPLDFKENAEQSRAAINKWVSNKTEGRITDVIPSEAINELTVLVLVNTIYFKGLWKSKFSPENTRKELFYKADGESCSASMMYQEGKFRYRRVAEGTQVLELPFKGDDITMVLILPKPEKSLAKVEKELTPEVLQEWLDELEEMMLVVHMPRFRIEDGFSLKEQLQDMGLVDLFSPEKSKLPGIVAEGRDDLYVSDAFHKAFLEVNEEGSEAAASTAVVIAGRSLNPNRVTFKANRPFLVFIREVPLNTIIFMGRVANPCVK
Description: as §1, §2

factor Xa = experiment: Antithrombin III mediated anti-factor Xa activity, purified plasma proteins; format: biochemical; conditions: standard curve using heparin (Mr avg 14,000), 167 units/mg
Description: as §1

T1 sequence (P01024 23-1663): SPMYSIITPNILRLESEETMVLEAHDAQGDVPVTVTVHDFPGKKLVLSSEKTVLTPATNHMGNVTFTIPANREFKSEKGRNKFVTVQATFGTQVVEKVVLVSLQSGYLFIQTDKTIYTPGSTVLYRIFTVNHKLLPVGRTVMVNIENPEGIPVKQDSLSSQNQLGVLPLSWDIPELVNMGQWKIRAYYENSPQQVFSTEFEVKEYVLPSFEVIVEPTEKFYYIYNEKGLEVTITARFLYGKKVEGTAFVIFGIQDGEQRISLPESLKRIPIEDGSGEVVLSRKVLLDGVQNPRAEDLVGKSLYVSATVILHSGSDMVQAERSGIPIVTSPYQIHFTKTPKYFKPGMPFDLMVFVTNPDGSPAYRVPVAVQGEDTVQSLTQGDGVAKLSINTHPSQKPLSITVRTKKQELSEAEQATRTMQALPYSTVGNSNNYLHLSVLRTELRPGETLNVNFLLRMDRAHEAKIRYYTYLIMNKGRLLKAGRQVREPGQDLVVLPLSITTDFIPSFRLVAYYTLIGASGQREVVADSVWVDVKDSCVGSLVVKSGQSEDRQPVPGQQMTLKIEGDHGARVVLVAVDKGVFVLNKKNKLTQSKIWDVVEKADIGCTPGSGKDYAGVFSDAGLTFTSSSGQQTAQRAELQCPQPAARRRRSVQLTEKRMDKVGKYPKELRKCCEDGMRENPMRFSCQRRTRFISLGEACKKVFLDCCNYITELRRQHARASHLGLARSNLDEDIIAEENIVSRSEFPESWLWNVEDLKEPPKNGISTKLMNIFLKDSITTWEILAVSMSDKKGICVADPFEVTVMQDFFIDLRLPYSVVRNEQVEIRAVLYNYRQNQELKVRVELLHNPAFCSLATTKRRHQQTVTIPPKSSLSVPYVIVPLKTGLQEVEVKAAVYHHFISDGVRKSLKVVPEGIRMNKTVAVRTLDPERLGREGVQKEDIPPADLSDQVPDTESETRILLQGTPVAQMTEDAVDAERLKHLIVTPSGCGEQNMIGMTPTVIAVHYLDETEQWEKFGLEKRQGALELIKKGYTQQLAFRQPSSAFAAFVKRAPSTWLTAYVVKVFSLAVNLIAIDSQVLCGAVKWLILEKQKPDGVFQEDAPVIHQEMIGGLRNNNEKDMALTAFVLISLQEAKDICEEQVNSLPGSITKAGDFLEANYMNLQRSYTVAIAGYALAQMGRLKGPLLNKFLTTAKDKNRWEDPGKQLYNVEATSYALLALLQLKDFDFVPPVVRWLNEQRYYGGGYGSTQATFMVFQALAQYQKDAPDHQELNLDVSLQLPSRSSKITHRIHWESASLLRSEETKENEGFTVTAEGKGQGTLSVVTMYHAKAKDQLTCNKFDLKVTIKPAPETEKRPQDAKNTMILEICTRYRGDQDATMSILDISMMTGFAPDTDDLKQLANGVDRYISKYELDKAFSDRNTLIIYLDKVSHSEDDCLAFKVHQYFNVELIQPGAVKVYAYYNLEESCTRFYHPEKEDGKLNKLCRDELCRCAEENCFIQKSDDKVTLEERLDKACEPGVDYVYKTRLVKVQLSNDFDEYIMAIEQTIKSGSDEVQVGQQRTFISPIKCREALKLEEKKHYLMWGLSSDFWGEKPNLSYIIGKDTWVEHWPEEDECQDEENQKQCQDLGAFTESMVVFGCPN
T1 sequence (P00751 26-764): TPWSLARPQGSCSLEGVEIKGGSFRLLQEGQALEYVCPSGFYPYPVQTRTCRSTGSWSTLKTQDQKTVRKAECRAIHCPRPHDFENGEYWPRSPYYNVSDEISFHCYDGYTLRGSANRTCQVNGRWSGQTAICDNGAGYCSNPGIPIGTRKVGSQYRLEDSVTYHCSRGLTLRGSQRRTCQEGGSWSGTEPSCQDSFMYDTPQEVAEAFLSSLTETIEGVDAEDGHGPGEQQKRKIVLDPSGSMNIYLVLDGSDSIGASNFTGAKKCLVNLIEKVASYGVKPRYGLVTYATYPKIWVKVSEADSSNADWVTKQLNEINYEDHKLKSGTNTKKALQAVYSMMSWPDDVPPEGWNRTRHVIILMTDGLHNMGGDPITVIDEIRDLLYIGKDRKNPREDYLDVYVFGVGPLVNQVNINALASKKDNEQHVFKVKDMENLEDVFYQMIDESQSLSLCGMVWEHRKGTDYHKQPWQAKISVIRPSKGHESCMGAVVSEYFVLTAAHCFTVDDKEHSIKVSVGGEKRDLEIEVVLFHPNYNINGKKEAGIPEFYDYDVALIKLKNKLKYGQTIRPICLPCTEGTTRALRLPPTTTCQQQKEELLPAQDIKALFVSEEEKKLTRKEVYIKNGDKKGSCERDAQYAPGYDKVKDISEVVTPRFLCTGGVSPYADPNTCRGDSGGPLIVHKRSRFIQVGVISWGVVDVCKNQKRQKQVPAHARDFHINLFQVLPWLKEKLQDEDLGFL
T1 sequence (P27918 28-469 partner): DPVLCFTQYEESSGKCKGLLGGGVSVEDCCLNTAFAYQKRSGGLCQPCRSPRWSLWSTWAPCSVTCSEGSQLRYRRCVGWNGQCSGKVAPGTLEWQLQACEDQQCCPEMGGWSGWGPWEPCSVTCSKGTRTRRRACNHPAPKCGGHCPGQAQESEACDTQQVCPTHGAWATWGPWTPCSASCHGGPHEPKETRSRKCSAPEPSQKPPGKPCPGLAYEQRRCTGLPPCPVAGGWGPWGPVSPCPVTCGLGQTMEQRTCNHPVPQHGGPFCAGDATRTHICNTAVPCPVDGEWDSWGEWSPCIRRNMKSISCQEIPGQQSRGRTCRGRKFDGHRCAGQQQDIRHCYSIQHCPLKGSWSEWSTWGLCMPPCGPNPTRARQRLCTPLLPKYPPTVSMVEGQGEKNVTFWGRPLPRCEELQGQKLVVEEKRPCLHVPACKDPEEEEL
T1 sequence (P00746 26-253 partner): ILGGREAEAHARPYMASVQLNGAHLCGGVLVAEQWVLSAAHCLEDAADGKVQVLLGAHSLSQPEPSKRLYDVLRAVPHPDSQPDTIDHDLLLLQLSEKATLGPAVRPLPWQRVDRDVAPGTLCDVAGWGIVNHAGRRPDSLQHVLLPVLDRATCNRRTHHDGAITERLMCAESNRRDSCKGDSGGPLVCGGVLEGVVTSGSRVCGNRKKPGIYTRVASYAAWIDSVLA

Structure (SMILES)	Complement activation inhibitory activity [1]	Anticoagulant ACTIVITY aPTT [2] [units/μmole]	Anticoagulant ACTIVITY Antithrombin III mediated Anti-factor IIa [3] [units/μmole]	Anticoagulant ACTIVITY Antithrombin III mediated Anti-factor Xa (factor Xa) [units/μmole]
O=C(O)C1=C[C@H](O)[C@@H](OS(=O)(=O)O)[C@H](O[C@H]2[C@H](O)[C@@H](NS(=O)(=O)O)[C@@H](O[C@H]3[C@H](O)[C@@H](OS(=O)(=O)O)[C@H](O[C@H]4[C@H](O)[C@@H](NS(=O)(=O)O)C(O)O[C@@H]4COS(=O)(=O)O)O[C@H]3C(=O)O)O[C@@H]2CO)O1 (stereo partly drawn) [4A, ΔUAp2S(1→4)-α-D-GlcNp2S(1→4)-α-L-IdoAp2S-α-D-GlcNp2S6S]	low activity	2	< 1	< 0.1
O=C(O)C1=C[C@H](O)[C@@H](OS(=O)(=O)O)[C@H](O[C@H]2[C@H](O)[C@@H](NS(=O)(=O)O)[C@@H](O[C@H]3[C@H](O)[C@@H](O)[C@H](O[C@H]4[C@H](O)[C@@H](NS(=O)(=O)O)C(O)O[C@@H]4COS(=O)(=O)O)O[C@@H]3C(=O)O)O[C@@H]2COS(=O)(=O)O)O1 (stereo partly drawn) [4B, ΔUAp2S(1→4)-α-D-GlcNp2S6S(1→4)-β-D-GlcAp(1→4)-α-D-GlcNp2S6S]	low activity	2	< 2	0.1
O=C(O)C1=C[C@H](O)[C@@H](OS(=O)(=O)O)[C@H](O[C@H]2[C@H](O)[C@@H](NS(=O)(=O)O)[C@@H](O[C@H]3[C@H](O)[C@@H](OS(=O)(=O)O)[C@H](O[C@H]4[C@H](O)[C@@H](NS(=O)(=O)O)C(O)O[C@@H]4COS(=O)(=O)O)O[C@H]3C(=O)O)O[C@@H]2COS(=O)(=O)O)O1 (stereo partly drawn) [4C, ΔUAp2S(1→4)-α-D-GlcNp2S6S(1→4)-α-L-IdoAp2S(1→4)-α-D-GlcNp2S6S]	low activity	2	< 2	3
CC(=O)NC1C(OC2C(C(=O)O)OC(OC3C(COS(=O)(=O)O)OC(O)C(NS(=O)(=O)O)C3OS(=O)(=O)O)C(O)C2O)OC(COS(=O)(=O)O)C(OC2OC(C(=O)O)C(OC3OC(COS(=O)(=O)O)C(OC4OC(C(=O)O)=CC(O)C4OS(=O)(=O)O)C(O)C3NS(=O)(=O)O)C(O)C2O)C1O [6C, ΔUAp2S(1→4)-α-D-GlcNp2S6S(1→4)-α-L-IdoAp(1→4)-α-D-GlcNAcp6S-(1→4)-β-D-GlcAp( 1→4)-α-D-GlcNp2S3S6S]	low activity	26	11	26
O=C(O)C1=CC(O)C(OS(=O)(=O)O)C(OC2C(COS(=O)(=O)O)OC(OC3C(C(=O)O)OC(OC4C(COS(=O)(=O)O)OC(OC5C(C(=O)O)OC(OC6C(COS(=O)(=O)O)OC(O)C(NS(=O)(=O)O)C6O)C(OS(=O)(=O)O)C5O)C(NS(=O)(=O)O)C4O)C(OS(=O)(=O)O)C3O)C(NS(=O)(=O)O)C2O)O1 (centres unmarked) [6D]	–	11	< 2	4
O=C(O)C1=CC(O)C(OS(=O)(=O)O)C(OC2C(COS(=O)(=O)O)OC(OC3C(C(=O)O)OC(OC4C(COS(=O)(=O)O)OC(OC5C(C(=O)O)OC(OC6C(COS(=O)(=O)O)OC(OC7C(C(=O)O)OC(OC8C(COS(=O)(=O)O)OC(O)C(NS(=O)(=O)O)C8O)C(OS(=O)(=O)O)C7O)C(NS(=O)(=O)O)C6O)C(OS(=O)(=O)O)C5O)C(NS(=O)(=O)O)C4O)C(OS(=O)(=O)O)C3O)C(NS(=O)(=O)O)C2O)O1 (centres unmarked) [8D]	–	22	< 3	32
O=C(O)C1=CC(O)C(OS(=O)(=O)O)C(OC2C(COS(=O)(=O)O)OC(OC3C(C(=O)O)OC(OC4C(COS(=O)(=O)O)OC(OC5C(C(=O)O)OC(OC6C(COS(=O)(=O)O)OC(OC7C(C(=O)O)OC(OC8C(COS(=O)(=O)O)OC(OC9C(C(=O)O)OC(OC%10C(COS(=O)(=O)O)OC(O)C(NS(=O)(=O)O)C%10O)C(OS(=O)(=O)O)C9O)C(NS(=O)(=O)O)C8O)C(OS(=O)(=O)O)C7O)C(NS(=O)(=O)O)C6O)C(OS(=O)(=O)O)C5O)C(NS(=O)(=O)O)C4O)C(OS(=O)(=O)O)C3O)C(NS(=O)(=O)O)C2O)O1 (centres unmarked) [10D]	–	54	< 3	136
O=C(O)C1=C[C@H](O)[C@@H](OS(=O)(=O)O)[C@H](O[C@H]2[C@H](O)[C@@H](NS(=O)(=O)O)C(O)O[C@@H]2COS(=O)(=O)O)O1 (stereo partly drawn) [compound 2, ΔUAp2S(1→4)-α-D-GlcNp2S6S]	low activity	< 1	< 1	< 0.1

Reference: patent publication US4916219A, “Oligosaccharide heparin fragments as inhibitors of complement cascade” (University of Iowa Research Foundation, priority 1988, dated 1990)
